This is an account of results in US10550105B2 (Ribon Therapeutics Inc., priority 2018, dated 2020).

The experiment deals with PARP7 (Homo sapiens (Human), UniProt Q7Z3E1). Put plainly: Enzymatic assay for inhibition of PARP7: TR-FRET displacement of biotinylated Probe A from the TIPARP active site. Format: binding. The note with it: Table A-1. The gist of the method: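 Percent inhibition derives from the ratio of 665 to 615 nm emission, which reports how much Probe A remains bound to TIPARP. Plates sat 30 min at 25° C before the time-resolved read (320 nm excitation).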
Sequence of PARP7 (Q7Z3E1 whole entry): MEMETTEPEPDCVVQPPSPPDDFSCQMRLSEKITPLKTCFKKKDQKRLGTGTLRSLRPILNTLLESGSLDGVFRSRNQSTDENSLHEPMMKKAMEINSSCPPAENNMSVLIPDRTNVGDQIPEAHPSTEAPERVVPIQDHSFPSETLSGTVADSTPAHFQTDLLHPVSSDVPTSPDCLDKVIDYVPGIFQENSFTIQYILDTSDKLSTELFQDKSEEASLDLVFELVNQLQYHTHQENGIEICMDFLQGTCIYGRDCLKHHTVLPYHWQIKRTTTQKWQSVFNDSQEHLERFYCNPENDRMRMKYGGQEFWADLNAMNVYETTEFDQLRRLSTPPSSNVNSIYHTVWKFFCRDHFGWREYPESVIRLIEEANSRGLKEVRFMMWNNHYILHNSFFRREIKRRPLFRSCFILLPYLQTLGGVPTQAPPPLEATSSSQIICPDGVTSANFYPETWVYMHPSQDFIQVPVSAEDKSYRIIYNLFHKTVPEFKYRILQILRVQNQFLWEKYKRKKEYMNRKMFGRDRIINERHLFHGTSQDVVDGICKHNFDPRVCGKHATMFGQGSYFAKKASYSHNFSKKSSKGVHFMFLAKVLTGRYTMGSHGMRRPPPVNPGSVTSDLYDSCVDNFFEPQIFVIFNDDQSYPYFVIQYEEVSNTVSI
For orientation: TR-FRET usually uses a lanthanide donor and a delayed reading to cut background.
Broadly, the IC50 is the point on the concentration scale where inhibition reaches its midpoint. As for `CC(=O)N1CCN(C(=O)c2cccc(OC[C@H]3c4ccccc4CN3c3cn[nH]c(=O)c3C(F)(F)F)c2)CC1` [Example 406, (R)-5-(1-((3-(4-Acetylpiperazine-1-carbonyl)phenoxy)methyl)isoindolin-2-yl)-4-(trifluoromethyl)pyridazin-3(2H)-one], the IC50 is not below 1000 nM.

`CC(=O)N1CCN(C(=O)c2cccc(OC[C@@H]3c4ccccc4CN3c3cn[nH]c(=O)c3C(F)(F)F)c2)CC1` [Example 407, (S)-5-(1-((3-(4-Acetylpiperazine-1-carbonyl)phenoxy)methyl)isoindolin-2-yl)-4-(trifluoromethyl)pyridazin-3(2H)-one] yielded a concentration for half-maximal inhibition (IC50) of less than 100 nM.

Consider `N#Cc1ccc(N2CCN(C(=O)CCCOCC3c4ccccc4CN3c3cn[nH]c(=O)c3C(F)(F)F)CC2)nc1` (stereo not drawn) [Example 408, 6-(4-(4-((2-(6-Oxo-5-(trifluoromethyl)-1,6-dihydropyridazin-4-yl)isoindolin-1-yl)methoxy)butanoyl)piperazin-1-yl)nicotinonitrile], for which the IC50 was less than 100 nM.

Turning to `N#Cc1ccc(N2CCN(C(=O)CCCOC[C@H]3c4ccccc4CN3c3cn[nH]c(=O)c3C(F)(F)F)CC2)nc1` [Example 409, (R)-6-(4-(4-((2-(6-Oxo-5-(trifluoromethyl)-1,6-dihydropyridazin-4-yl)isoindolin-1-yl)methoxy)butanoyl)piperazin-1-yl)nicotinonitrile], the IC50 was 100 to 1000 nM.

As to `N#Cc1ccc(N2CCN(C(=O)CCCOC[C@@H]3c4ccccc4CN3c3cn[nH]c(=O)c3C(F)(F)F)CC2)nc1` [Example 410, (S)-6-(4-(4-((2-(6-Oxo-5-(trifluoromethyl)-1,6-dihydropyridazin-4-yl)isoindolin-1-yl)methoxy)butanoyl)piperazin-1-yl)nicotinonitrile], the IC50 is less than 100 nM.

In turn, `N#Cc1ccc(N2CCN(C(=O)CCCOCC3c4ncccc4CN3c3cn[nH]c(=O)c3C(F)(F)F)CC2)nc1` (stereo not drawn) [Example 411, 6-(4-(4-((6-(6-Oxo-5-(trifluoromethyl)-1,6-dihydropyridazin-4-yl)-6,7-dihydro-5H-pyrrolo[3,4-b]pyridin-7-yl)methoxy)butanoyl)piperazin-1-yl)nicotinonitrile] showed a half-maximal inhibitory concentration (IC50) of less than 100 nM.

Molecule `N#Cc1ccc(N2CCN(C(=O)CCOCC3c4ncccc4CN3c3cn[nH]c(=O)c3C(F)(F)F)CC2)nc1` (stereo not drawn) [Example 412, 6-(4-(3-((6-(6-Oxo-5-(trifluoromethyl)-1,6-dihydropyridazin-4-yl)-6,7-dihydro-5H-pyrrolo[3,4-b]pyridin-7-yl)methoxy)propanoyl)piperazin-1-yl)nicotinonitrile] returned an IC50 of less than 100 nM.

Consider `N#Cc1ccc(N2CCN(C(=O)CCOC[C@@H]3c4ccccc4CN3c3cn[nH]c(=O)c3Cl)CC2)nc1` [Example 413, (S)-6-(4-(3-((2-(5-Chloro-6-oxo-1,6-dihydropyridazin-4-yl)isoindolin-1-yl)methoxy)propanoyl)piperazin-1-yl)nicotinonitrile], for which the half-maximal inhibitory concentration (IC50) was less than 100 nM.

Turning to `N#Cc1ccc(N2CCN(C(=O)CCOC[C@H]3c4ccccc4CN3c3cn[nH]c(=O)c3Cl)CC2)nc1` [Example 414, (R)-6-(4-(3-((2-(5-Chloro-6-oxo-1,6-dihydropyridazin-4-yl)isoindolin-1-yl)methoxy)propanoyl)piperazin-1-yl)nicotinonitrile], the IC50 lay in the range of 100 to 1000 nM.

Regarding `O=C(CCOC[C@@H]1c2ccccc2CN1c1cn[nH]c(=O)c1Cl)N1CCN(c2ncc(C(F)(F)F)cn2)CC1` [Example 415, (S)-4-Chloro-5-(1-((3-oxo-3-(4-(5-(trifluoromethyl)pyrimidin-2-yl)piperazin-1-yl)propoxy)methyl)isoindolin-2-yl)pyridazin-3(2H)-one], the 50% inhibitory concentration (IC50) is less than 100 nM.

In turn, `O=C(CCOC[C@H]1c2ccccc2CN1c1cn[nH]c(=O)c1Cl)N1CCN(c2ncc(C(F)(F)F)cn2)CC1` [Example 416, (R)-4-Chloro-5-(1-((3-oxo-3-(4-(5-(trifluoromethyl)pyrimidin-2-yl)piperazin-1-yl)propoxy)methyl)isoindolin-2-yl)pyridazin-3(2H)-one] displayed an IC50 of 100 to 1000 nM.

The molecule `O=C(CCOC[C@@H]1c2ccccc2CN1c1cn[nH]c(=O)c1C(F)(F)F)N1CCNCC1` [Example 417, (S)-5-(1-((3-Oxo-3-(piperazin-1-yl)propoxy)methyl)isoindolin-2-yl)-4-(trifluoromethyl)pyridazin-3(2H)-one] came in with an IC50 of 100 to 1000 nM.

`O=C(CCOC[C@H]1c2ccccc2CN1c1cn[nH]c(=O)c1C(F)(F)F)N1CCNCC1` [Example 418, (R)-5-(1-((3-Oxo-3-(piperazin-1-yl)propoxy)methyl)isoindolin-2-yl)-4-(trifluoromethyl)pyridazin-3(2H)-one 0.4 formic acid] yielded an IC50 not below 1000 nM.

Consider `CC(=O)N1CCN(C(=O)CCOC[C@@H]2c3ccccc3CN2c2cn[nH]c(=O)c2C(F)(F)F)CC1` [Example 419, (S)-5-(1-((3-(4-Acetylpiperazin-1-yl)-3-oxopropoxy)methyl)isoindolin-2-yl)-4-(trifluoromethyl)pyridazin-3(2H)-one], for which the IC50 was less than 100 nM.

On to `CC(=O)N1CCN(C(=O)CCOC[C@H]2c3ccccc3CN2c2cn[nH]c(=O)c2C(F)(F)F)CC1` [Example 420, (R)-5-(1-((3-(4-Acetylpiperazin-1-yl)-3-oxopropoxy)methyl)isoindolin-2-yl)-4-(trifluoromethyl)pyridazin-3(2H)-one], for which the IC50 was not below 1000 nM.

For `CN1CCN(C(=O)CCOC[C@@H]2c3ccccc3CN2c2cn[nH]c(=O)c2C(F)(F)F)CC1` [Example 421, (S)-5-(1-((3-(4-Methylpiperazin-1-yl)-3-oxopropoxy)methyl)isoindolin-2-yl)-4-(trifluoromethyl)pyridazin-3(2H)-one], the 50% inhibitory concentration (IC50) was 100 to 1000 nM.

Consider `CN1CCN(C(=O)CCOC[C@H]2c3ccccc3CN2c2cn[nH]c(=O)c2C(F)(F)F)CC1` [Example 422, (R)-5-(1-((3-(4-Methylpiperazin-1-yl)-3-oxopropoxy)methyl)isoindolin-2-yl)-4-(trifluoromethyl)pyridazin-3(2H)-one], for which the IC50 was not below 1000 nM.

With `N#CCCC(=O)N1CCN(C(=O)CCOC[C@@H]2c3ccccc3CN2c2cn[nH]c(=O)c2C(F)(F)F)CC1` [Example 423, (S)-4-Oxo-4-(4-(3-((2-(6-oxo-5-(trifluoromethyl)-1,6-dihydropyridazin-4-yl)isoindolin-1-yl)methoxy)propanoyl)piperazin-1-yl)butanenitrile], the concentration for half-maximal inhibition (IC50) was less than 100 nM.

`N#CCCC(=O)N1CCN(C(=O)CCOC[C@H]2c3ccccc3CN2c2cn[nH]c(=O)c2C(F)(F)F)CC1` [Example 424, (R)-4-Oxo-4-(4-(3-((2-(6-oxo-5-(trifluoromethyl)-1,6-dihydropyridazin-4-yl)isoindolin-1-yl)methoxy)propanoyl)piperazin-1-yl)butanenitrile] displayed an IC50 not below 1000 nM.

Regarding `N#Cc1ccc(N2CCN(C(=O)CCNC[C@H]3c4ccccc4CN3c3cn[nH]c(=O)c3Cl)CC2)nc1` [Example 425, (R)-6-(4-(3-(((2-(5-Chloro-6-oxo-1,6-dihydropyridazin-4-yl)isoindolin-1-yl)methyl)amino)propanoyl)piperazin-1-yl)nicotinonitrile], the IC50 was not below 1000 nM.

In turn, `N#Cc1ccc(N2CCN(C(=O)CCNC[C@@H]3c4ccccc4CN3c3cn[nH]c(=O)c3Cl)CC2)nc1` [Example 426, (S)-6-(4-(3-(((2-(5-Chloro-6-oxo-1,6-dihydropyridazin-4-yl)isoindolin-1-yl)methyl)amino)propanoyl)piperazin-1-yl)nicotinonitrile] came in with an IC50 of less than 100 nM.
